# Measured values as given in patent publication US20220409696A1, “Heparin-Associated Polypeptides and Uses Thereof” (Juvena Therapeutics, Inc., priority 2021, published 2022).
# Key:
# human myoblast cells [1] = assay: Human myoblast differentiation (% eMyHC area), IGF2 and/or sodium butyrate; format: cell-based
# Description: Human myoblast cells were treated with either PBS (vehicle), IGF2 (15 ng/mL), sodium butyrate, or IGF2 and sodium butyrate. Fresh media was added every 24 hours. After 96 hours, cells were pulsed for 2-5 hours with EdU (30 uM), ethanol fixed, stained with Hoescht 3342, immunostained for proliferation—as measured by the percent of cells staining positive for EdU (% EdU)-, and immunostained for differentiation—as measured by the increase in cellular area staining positive for embryonic myosin heavy chain (% eMyHC) relative to the negative controls, which received media and vehicle only. The total area of eMyHc positive cells was analyzed, and treated cells were compared to cells treated with the vehicle alone. […] Significance was determined by a p-value less than 0.05 by the one-way ANOVA Tukey Honest Significant Difference test.
# FIG. 3C Bar graph quantitation of % Area eMyHC+ human myoblast in response to indicated treatment compared to IGF2 (15 ng/mL). Myoblast were cultured 96 h in the presence of IGF2 at indicated dose. Fresh media and IGF2 was added every 24 h.
# Human myoblast cells were treated with either PBS (vehicle), IGF2 (15 ng/mL), sodium butyrate, or IGF2 and sodium butyrate. Fresh media was added every 24 hours. After 48 hours, cells were pulsed for 2-5 hours with EdU (30 uM), ethanol fixed, stained with Hoescht 3342, immunostained for proliferation […] as measured by the percent of cells staining positive for EdU (% EdU)-, and immunostained for differentiation—as measured by the increase in cellular area staining positive for embryonic myosin heavy chain (% eMyHC) relative to the negative controls, which received media and vehicle only.
# Significance was determined by a p-value less than 0.05 by the one-way ANOVA Tukey Honest Significant Difference test.
# DM1 human myoblast = assay: Gene expression fold change in DM1 human myoblast; format: cell-based; details: 48 h; BMP7 50 ng/mL, Butyrate 100 nM, IGF2 200 ng/mL
# Description: Myoblasts were cultured 48 h in the presence of factors (BMP7 50 ng/mL, Butyrate 100 nM, IGF2 200 ng/mL).
# Myoblasts were cultured 96 h in the presence of factors (IGF2 200 ng/mL). […] Myoblasts were cultured 48 h in the presence of factors (IGF2 200 ng/mL).
# RNA was isolated from each well (RNeasy Mini Kit, Qiagen) and cDNA was obtained by reverse-transcription (High Capacity Reverse Transcription Kit, Thermo Fisher Scientific). Real-time quantitative PCR was performed using QuantStudio3 (Thermo Fisher).
# IGF2 was tested individually for its ability to promote proliferation and/or fusion of human muscle progenitor cells from an individual with myotonic dystrophy type 1 (hMD)—a muscular dystrophy caused by mutations in the DMPK1 gene. The effect of IGF2 on myogenic activity was assayed in biological triplicate across a range of concentrations centered around expected physiological levels by adding each factor to hMD myoblasts for 72 hours with daily media changes (DMEM+2% horse serum) and a second pulse of factors at the first media change. After 72 or 96 hours, cells were pulsed for 2-5 hours with EdU (30 uM), ethanol fixed, stained with Hoescht 3342, immunostained for proliferation—as measured by the percent of cells staining positive for EdU (% EdU)-, and immunostained for differentiation—as measured by the increase in cellular area staining positive for embryonic myosin heavy chain (% eMyHC) relative to the negative controls, which received media and vehicle only. Wells were imaged on a Keyence BZ-100 at 4×, the images quantified in Cell Profiler, and the statistics were computed in R. Additionally, RNA was extracted from myoblast and select transcript abundances quantified by qPCR.
# Mouse myoblasts = assay: Mouse myoblast fusion index with sodium butyrate; format: cell-based; details: 48 h
# Description: Mouse myoblasts were treated with PBS or sodium butyrate at concentrations 0.1 nM, 1 nM, and 10 nM. Myoblasts were cultured for 48 hours, with fresh media added every 24 hours. Cells were pulsed for 2-5 hours with EdU (30 uM), ethanol fixed, stained with Hoescht 3342, immunostained for proliferation—as measured by the percent of cells staining positive for EdU (% EdU)-, and immunostained for differentiation—as measured by the increase in cellular area staining positive for embryonic myosin heavy chain (% eMyHC) relative to the negative controls, which received media and vehicle only. […] Significance was determined by a p-value less than 0.05 by the one-way ANOVA Tukey Honest Significant Difference test.
# FIG. 3A: Bar graph of fusion index in response to sodium butyrate (NaBut) compared to vehicle. Myoblast were cultured 48 h in the presence of NaBut at indicated dose. Fresh media and NaBut were added every 24 h. Mean∓S.D. Table with quantitation of fusion index and p-values also shown. (*p<0.05 by Student's Two-tailed T-test, n=3−5)
# human myoblast cells [2] = assay: Differentiation of human myoblast cells, MyHC immunostaining; format: cell-based; details: for % MyHC: 96 hours with daily media change; for percentage area of MyHC compared with vehicle control: 96 hours, One-Way ANOVA Tukey
# Description: (§1) FIG. 1A: The suspension CHO cells were transiently transfected with the IGF2-hFcm encoding plasmid. IGF2-hFcm was affinity-purified by Protein A membrane column. The purified IGF2-hFcm was added into the culture of human myoblast cells for 96 hours. Myosin heavy chain (MyHC) was immunostained and imaged by a fluorescence microscope.
# as §1, with “1B:” for “1A:”, “IGF2-LhFc4” for “IGF2-hFcm”, “hours with daily media change.” for “hours.”
# as §1, with “2A:” for “1A:”, “HSA-L-IGF2R61A” for “IGF2-hFcm”, “hours with daily media change.” for “hours.”
# Suspension CHO cells were transiently transfected with the IGF2-hFcm encoding plasmid. After four days, the culture supernatants were collected and IGF2-hFcm was affinity-purified by Protein A membrane column. The purified IGF2-hFcm was added into the culture of human myoblast cells. Myosin heavy chain (MyHC) was immunostained and imaged by a fluorescent microscope. After quantification of the stained MyHC, the percentage area of MyHC was calculated as the percent of pixels within the field that are illuminated above background in the stained channel. […] Significance was determined by a p-value less than 0.05 by the one-way ANOVA Tukey Honest Significant Difference test.
# rhIGFBP3 = rhIGFBP3 (Homo sapiens, UniProt P17936); assay: Interaction with rhIGFBP3 by size exclusion chromatography (HPLC); format: binding; details: 1:1 stoichiometric mixture
# Source text: In physiological conditions IGF2 will bind IGF binding proteins (IGFBPs). The purpose of this study was to determine if mutant sequences of IGF2 interact with IGFBPs. Retention time across a size exclusions chromatography column is proportional to the size of the molecule. Thus molecular interactions can be ascertained by a corresponding change in retention time on a size exclusions chromatography column.
# [3] = Pharmacokinetics after intravenous injection in mice; format: in vivo
# Description: Murine pharmacokinetics (PK) represents the absorption, distribution, metabolism, and elimination of drugs from the body. The pharmacokinetic profile of the therapeutic polypeptides were determined in mice (10-12 weeks old). Mice were fed ad libitum and housed under controlled conditions of lighting (12-hour light/12-hour dark) and temperature (22-24° C.). Mice were allowed to acclimate for 3 days prior to the initiation of the experiment. Intravenous (IV) injection in 10-12 weeks old mice. Engineered mitogenic polypeptides concentrations in the samples were measured by ELISA. Various pharmacokinetics will be calculated as well as the absorption/elimination dynamics following different routes of administration.
# [4] = test system: human DM1 muscle precursors from person; assay: In vitro myogenesis assay, human DM1 muscle precursors; format: cell-based; details: equimolar concentrations across a range of concentrations
# Description: (§2) Human muscle progenitor cells (early passage myoblasts) were cultured and expanded in growth medium: Ham's F-10 (Gibco), 20% Bovine Growth Serum (Hyclone), 5 ng/mL FGF2 and 1% penicillin-streptomycin on Matrigel coated plates (1:300 matrigel: PBS), at 37° C. and 5% CO2. For experimental conditions, cells were plated at 40,000 cells/well on Matrigel coated 8-well chamber slides in 250-500 μL medium per well (1:100 matrigel: PBS) in human fusion medium: DMEM (Gibco)+2% horse serum (Hyclone). One hour after plating, human myoblasts were treated with 50% respective media: […] were cultured for 24 hours in the above conditions, at 37° C. in 10% CO2 incubator. BrdU (300 μM) in DMSO was added for 2 hours prior to fixation with cold 70% ethanol and stored at 4° C. until staining.
# (§3) Following permeabilization in PBS+0.25% Triton X-100, antigen retrieval was performed. Primary staining was performed with primary antibodies including: a species-specific monoclonal antibody for mouse anti-embryonic Myosin Heavy Chain (eMyHC, hybridoma clone 1.652, Developmental Studies Hybridoma Bank) and Rat-anti-BrdU (Abcam Inc. ab6326). […]
# [5] = test system: healthy human muscle precursors from person; assay: In vitro myogenesis assay, healthy human muscle precursors; format: cell-based
# Description: as §2, §3
# [6] = Backbone cleavage on expression from CHO cells (reducing SDS-PAGE, Western blot)
# Description: The amino acid backbone of IGF2 is cleaved when expressed from Chinese Hamster Ovary (CHO) cells (FIG. 13A) as visualized on a reducing SDS-PAGE and Western blot (FIG. 13B). The CHO cells were grown in a 37° C. incubator with a humidified atmosphere of 8% CO2 on an orbital shaker platform with a shaking speed 125 rpm to reach 4E6 cells/mL, followed by transferring the calculated volume of cells to fresh, pre-warmed ExpiCHO™ Expression Medium in a shake flask. Incubated flasks in a 37° C. incubator with a humidified atmosphere of 8% CO2 shook on an orbital shaker platform until cultures reached a density of 4×106-6×10^6 viable cells/mL. After mixing each plasmid with 100 ul SFM in a microtube; ExpiFectamine (8 ul×10.5=84 ul) with OptiPro medium (92 ul×10.5=966 ul) in a microtube; adding 100 ul into the plasmid tube and mix by pipetting; After 5 min, add 200 ul into each well and swirl to mix. mix enhancer (15×10.2=153 ul) with feed (600×10.2=6.12 ml), add 615 ul into each well. Culture supernatant collected at intervals was spun down at low speed and high speed, then frozen at −80 deg. Aliquots were analyzed for protein concentration by nanodrop, and then an equivalent amount loaded onto 4-12% SDS-PAGE gels for molecular weight distribution analysis. […]
# Sequence of rhIGFBP3 (P17936 28-291): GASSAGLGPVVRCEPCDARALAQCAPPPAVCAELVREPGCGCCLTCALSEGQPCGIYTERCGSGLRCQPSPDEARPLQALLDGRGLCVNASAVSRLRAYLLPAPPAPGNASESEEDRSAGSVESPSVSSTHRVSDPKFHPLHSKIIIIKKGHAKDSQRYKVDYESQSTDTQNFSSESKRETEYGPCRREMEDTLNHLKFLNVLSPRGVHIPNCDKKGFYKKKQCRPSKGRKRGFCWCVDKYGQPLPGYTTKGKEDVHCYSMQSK
compound,measurement,setting,value
"CCCC(=O)[O-].[Na+] [NaBut, sodium butyrate]",% eMyHC,"human myoblast cells [1]; NaBut 1 nM, 96 h (FIG. 3B)",2.321%
same,% eMyHC,"human myoblast cells [1]; NaBut 1 nM, after 48 hours (FIG. 4A)",2.321%
same,% eMyHC,"human myoblast cells [1]; NaBut 10 nM, 96 h (FIG. 3B)",6.199%
same,% eMyHC,"human myoblast cells [1]; NaBut 10 nM, after 48 hours (FIG. 4A)",6.199%
same,% eMyHC,"human myoblast cells [1]; NaBut 100 nM, 96 h (FIG. 3B)",8.341%
same,% eMyHC,"human myoblast cells [1]; NaBut 100 nM, after 48 hours (FIG. 4A)",8.341%
same,MYF5 myogenic gene expression fold change compared to FM (vehicle),DM1 human myoblast,1.128
same,MYODI myogenic gene expression fold change compared to FM (vehicle),DM1 human myoblast,1.095
same,MYOG myogenic gene expression fold change compared to FM (vehicle),DM1 human myoblast,1.020
same,Fusion Index (nuclei/myotube),Mouse myoblasts; NaBut 0.1 nM,8.44 nuclei/myotube
same,Fusion Index (nuclei/myotube),Mouse myoblasts; NaBut 1 nM,31.60 nuclei/myotube
same,Fusion Index (nuclei/myotube),"Mouse myoblasts; NaBut 1 nM, listed as sodium butyrate",increased rates of fusion
same,Fusion Index (nuclei/myotube),Mouse myoblasts; NaBut 10 nM,14.00 nuclei/myotube
"IGF2-hFc4: Human IGF2-hFc4, SEQ ID NO 39",% MyHC,"human myoblast cells [2]; FIG. 1B, Example 3",6.901%
"IGF2-LhFc4: Human IGF2-linker3-hFc4 (human IgG4 Fc with S228P), SEQ ID NO 38",percentage area of MyHC compared with vehicle control,human myoblast cells [2],significantly higher
same,% MyHC,"human myoblast cells [2]; FIG. 1B, Example 3",6.237%
"HSA-IGF2R61A: His tagged HSA fusion IGF2 R61A mutant with a long linker, SEQ ID NO: 34",interaction with rhIGFBP3 (mass shift in size exclusion chromatography),rhIGFBP3,preserved affinity
same,serum half-life compared to the natural sequence of IGF2,[3]; mice,significantly improved
same,Half-life,"[3]; mice 10-12 weeks old, dose 10 mg/kg (HSA-IGF2R61A), 600 ug/kg (IGF2), Non-Compartment Analysis",20.81 h
same,percentage area of MyHC compared with vehicle control,human myoblast cells [2],significantly higher
same,% MyHC,"human myoblast cells [2]; FIG. 2A, Example 4",6.914%
same,myogenic activity relative to IGF2,[4],equal activity
same,myogenic activity relative to IGF2,[5]; equimolar concentrations across a range of concentrations,equal activity
same,myogenic activity relative to HSA-IGF2,"[5]; equimolar concentrations, before or after size exclusion purification via HPLC",equal or increased activity
"HSA-IGF2: His tagged HSA fusion IGF2 with a long linker, SEQ ID NO 33",% MyHC,"human myoblast cells [2]; FIG. 2A, Example 4",7.079%
same,cleavage of the amino acid backbone when expressed from CHO cells,[6],cleaved
"hFc4L-IGF2: hFc4-linker3-human IGF2, SEQ ID NO 40",% MyHC,"human myoblast cells [2]; FIG. 1B, Example 3",5.820%
